Where two headings read alike, the source gives them in different places.
Key:
Assay type in all cases: in vivo
[1] = tested on: green peach aphid (Myzus persicae); test: Myzus persicae test; settings: 24 h, read-out: Kill in % after 1^d
Procedure: (§1) • Solvents: 78 parts by weight of acetone 1.5 parts by weight of dimethylformamide • Emulsifier: 0.5 part by weight of alkylaryl polyglycol ether
(§2) To produce a suitable preparation of active compound, 1 part by weight of active compound is mixed with the stated amount of solvent and emulsifier, and the concentrate is diluted with emulsifier-containing water to the desired concentration.
Cabbage leaves (Brassica oleracea) which are heavily infested by the green peach aphid (Myzus persicae) are treated by spraying with the active compound preparation of the desired concentration.
After the desired period of time, the kill in % is determined 100% means that all of the aphids have been killed; 0% means that none of the aphids have been killed. The kill rates determined are entered into Colby's formula (see above).

[2] = tested on: larvae of the mustard beetle (Phaedon cochleariae); test: Phaedon cochleariae larvae test; settings: for Kill in % after 2^d: sprayed cabbage leaves
[3] = tested on: greenhouse red spider mite (Tetranychus urticae); test: Tetranychus urticae test (OP-resistant/spray treatment)
Procedure: as §1, §2
Discs of bean leaves (Phaseolus vulgaris) which are infested by all stages of the greenhouse red spider mite (Tetranychus urticae) are sprayed with an active compound preparation of the desired concentration.
After the desired period of time, the effect in % is determined. 100% means that all of the spider mites have been killed; 0% means that none of the spider mites have been killed.

[4] = tested on: larvae of the armyworm (Spodoptera frugiperda); test: Spodoptera frugiperda test; settings: sprayed cabbage leaves
[5] = 200 g/ha, spray on infested cabbage leaves, after 1 d
[6] = Phaedon cochleariae, 144 h, single active compound, 200 g/ha, 6 d, read-out: Kill in % after 6 d
[7] = Tetranychus urticae, 144 h, single active compound, 100 g/ha, 6 d, read-out: Kill in % after 6 d
[8] = Phaedon cochleariae, 144 h, single active compound, 20 g/ha, 6 d, read-out: Kill in % after 6 d
[9] = Phaedon cochleariae, 144 h, single active compound, 100 g/ha, 6 d, read-out: Kill in % after 6 d
[10] = Tetranychus urticae, 144 h, read-out: Kill in % after 6 d
[11] = single active compound, 100 g/ha
[12] = single active compound, 500 g/ha, 6 d
[13] = single active compound, 200 g/ha

Compound	pest or weed control at 200 g/ha [2, 6] [%]	pest or weed control at 200 g/ha ([1]; in Brassica oleracea) [%]	pest or weed control at 200 g/ha [3, 10] [%]	also measured
Cc1nn(C)c(F)c1C(=O)Nc1ccccc1C(C)CC(C)C (stereo not drawn) [N-[2-(1,3-dimethylbutyl)phenyl]-5-fluoro-1,3-dimethyl-1H-pyrazole-4-carboxamide]	0			pest or weed control at 200 g/ha [1, 5]: 0%
CO/C=C(/C(=O)OC)c1ccccc1Oc1cc(Oc2ccccc2C#N)ncn1 [azoxystrobin]				pest or weed control at 500 g/ha ([2]; Phaedon cochleariae, 144 h, single active compound, 500 g/ha, 6 d, read-out: Kill in % after 6 d): 0%
O=C1C=C(N(CCF)Cc2ccc(Cl)nc2)CO1 [compound (I-4), 4-{[(6-chloropyrid-3-yl)methyl](2-fluoroethyl)amino}furan-2(5H)-one]				pest or weed control at 0.8 g/ha ([1]; 0.8 g/ha, spray on infested cabbage leaves, after 1 d): 50%; pest or weed control at 4 g/ha ([3]; Tetranychus urticae, 144 h, single active compound, 4 g/ha, 6 d, read-out: Kill in % after 6 d): 50%; pest or weed control at 100 g/ha [3, 7]: 80%; Kill in % after 2^d ([2]; 20 g/ha): 0%; pest or weed control at 20 g/ha [2, 8]: 0%; pest or weed control at 100 g/ha [2, 9]: 17%
O=C1C=C(N(Cc2ccc(Cl)nc2)CC(F)F)CO1 [compound (I-5), 4-{[(6-chloropyrid-3-yl)methyl](2,2-difluoroethyl)amino}furan-2(5H)-one]				pest or weed control at 0.8 g/ha ([1]; in Brassica oleracea): 50%; pest or weed control at 100 g/ha [3, 10]: 0%; Kill in % after 2 d [3, 11]: 20%; Kill in % after 2^d ([2]; 20 g/ha): 0%; pest or weed control at 20 g/ha [2, 8]: 0%; pest or weed control at 100 g/ha [2, 9]: 50%
CN(Cc1cnc(Cl)c(F)c1)C1=CC(=O)OC1 [compound (I-6), 4-{[(6-chloro-5-fluorpyrid-3-yl)methyl](methyl)amino}furan-2(5H)-one]				pest or weed control at 100 g/ha [3, 7]: 0%; Kill in % after 2 d [3, 11]: 0%; Kill in % after 2^d ([2]; 100 g/ha): 33%; pest or weed control at 20 g/ha [2, 8]: 0%; pest or weed control at 100 g/ha [2, 9]: 67%; Kill in % after 6^d ([4]; 100 g/ha): 0%
CSC1=N[C@@](C)(c2ccccc2)C(=O)N1Nc1ccccc1 [fenamidone]		0		Kill in % after 2^d ([2]; 200 g/ha): 0%
N#Cc1c[nH]cc1-c1cccc2c1OC(F)(F)O2 [fludioxonil]	17	0	0	
O=C(NCc1ncc(C(F)(F)F)cc1Cl)c1c(Cl)cccc1Cl [fluopicolide]				Kill in % after 6 d [3, 12]: 0%; Kill in % after 6 d [2, 12]: 0%
O=C(NCCc1ncc(C(F)(F)F)cc1Cl)c1ccccc1C(F)(F)F [fluopyram, N-[2-[3-chloro-5-(trifluoromethyl)-2-pyridinyl]ethyl]-2-(trifluoromethyl)benzamide]	0	0	0	
CC(C)NC(=O)N1CC(=O)N(c2cc(Cl)cc(Cl)c2)C1=O [iprodione]	0	0	50	
Cc1ccc(C(C)NC(=O)[C@@H](NC(=O)OC(C)C)C(C)C)cc1 (stereo partly drawn) [iprovalicarb]	0		0	
N#Cc1ccccc1NC(=O)c1snc(Cl)c1Cl [isotianil]	0	0	0	
COCC(=O)N(c1c(C)cccc1C)C(C)C(=O)OC (stereo not drawn) [metalaxyl]	0	0	0	
CCCOC(=O)NCCCN(C)C [propamocarb]				pest or weed control at 200 g/ha [1, 5]: 0%; pest or weed control at 200 g/ha ([3]; Tetranychus urticae, 144 h, single active compound, 200 g/ha, 6 d, read-out: Kill in % after 6 d): 0%; Kill in % after 2 d [3, 13]: 0%
OC(Cc1ccccc1Cl)(Cn1ncnc1S)C1(Cl)CC1 (stereo not drawn) [prothioconazole]		0	0	Kill in % after 2^d ([2]; 200 g/ha): 0%
CC(C)(C)C(O)(CCc1ccc(Cl)cc1)Cn1cncn1 (stereo not drawn) [tebuconazole]	0	0	70	
Cc1ccc(N(SC(F)(Cl)Cl)S(=O)(=O)N(C)C)cc1 [tolylfluanid]	17	0		Kill in % after 6^d ([4]; 200 g/ha): 0%
CC(C)(C)C(O)C(Oc1ccc(Cl)cc1)n1cncn1 (stereo not drawn) [triadimenol]	0	0	0	Kill in % after 2 d [3, 13]: 0%
CO/N=C(/C(=O)OC)c1ccccc1CO/N=C(\C)c1cccc(C(F)(F)F)c1 [trifloxystrobin]	33			Kill in % after 2^d ([2]; 200 g/ha): 0%

Source: patent US20120035050A1, “Synergistic Combinations Of Active Ingredients” (BAYER CROPSCIENCE AG, priority 2009, published 2012)
